# According to US5541163A, “Renin inhibiting N-(2-amino-2-oxoethyl)butanediamide derivatives” (Bio-Mega/Boehringer Ingelheim Research Inc., priority 1993, dated 1996):
# pIC50: −log10 of the molar value.
# Target: T1, human renin (Homo sapiens, UniProt P00797)
# T1 construct: A human plasma pool is used as the source of both the substrate (angiotensinogen) and the enzyme (renin); from tissue; host or cells: human plasma pool
# T1 sequence (P00797 67-406): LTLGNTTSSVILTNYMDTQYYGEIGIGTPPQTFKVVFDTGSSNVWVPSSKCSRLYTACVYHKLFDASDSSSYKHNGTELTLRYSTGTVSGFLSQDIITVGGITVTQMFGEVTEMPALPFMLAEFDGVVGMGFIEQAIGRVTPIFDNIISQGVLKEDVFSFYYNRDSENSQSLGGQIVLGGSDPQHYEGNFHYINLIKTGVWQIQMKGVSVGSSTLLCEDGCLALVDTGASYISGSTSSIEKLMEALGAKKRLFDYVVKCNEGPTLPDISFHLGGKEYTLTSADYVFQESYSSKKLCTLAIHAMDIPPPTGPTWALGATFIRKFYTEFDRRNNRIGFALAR
# Assay: Plasma renin assay (inhibition of human renin, angiotensin I by RIA)
# Type: biochemical
# Conditions: human plasma pool, pH 6.0, 2 h incubation at 37°
# Description: The assay is performed as follows: The test compound (i.e. the inhibitor) is dissolved in dimethylsulfoxide (1 mM stock solution) and diluted with an aqueous buffer solution of 270 mM 2-(N-morpholino)ethanesulfonic acid and 1% human serum albumin (pH 5.85, also containing dimercaprol and 8-hydroxyquinoline sulfate in accordance with the instructions of the RIA kit noted below) to give an assay mixture in which the final dimethylsulfoxide content is 1% (v/v).
# A human plasma pool is used as the source of both the substrate (angiotensinogen) and the enzyme (renin). The reaction is initiated by the addition of 50 μL of human plasma pool to 50 μL of various concentrations of inhibitor in the 1% dimethylsulfoxide assay buffer. The plasma renin activity is measured by the amount of angiotensin I generated at pH 6.0 following a 2 h incubation at 37°.
# Quantitation of angiotensin I is performed by radioimmunoassay (RIA kit from New England Nuclear-Dupont, Mississauga, ON, Canada). The enzymatic activity of renin is expressed in ng of angiotensin I generated (/mL/2 h). The extent of inhibition of the reaction is determined from the amount of angiotensin I generated in reference to a control prepared without inhibitor. Nonlinear regression analysis is used to calculate the IC50 values, i.e. the molar concentration of the test compound required to cause a 50% inhibition of the enzyme activity.
row,SMILES,pIC50
1,"CC(C)C[C@H](O)[C@H](O)[C@H](CC1CCCCC1)NC(=O)[C@@H](CC(=O)N(CC(=O)N(C)C)CC1CC2CCC1C2)Cc1cscn1 (mixture of isomers) [Compound 56, N^4 -{{1(S),2(R),4(S)-and 1(R),2(S),4(R)-{bicyclo[2.2.1]hept-2-yl}methyl}-N^4-[2-(dimethylamino)-2-oxoethyl]-N^1-[1(S)-(cyclohexylmethyl)-2(R),3(S)-dihydroxy-5-methylhexyl]-2(R)-(4-thiazolylmethyl)butanediamide]",8.70
2,"CC(C)C[C@H](O)[C@H](O)[C@H](CC1CCCCC1)NC(=O)[C@@H](CC(=O)N(CC(=O)N1CCOCC1)Cc1ccccc1)CC1CC1 [Compound 1, N^4-benzyl-N^4-(2-morpholino-2-oxoethyl)-N^1-[1(S)-(cyclohexylmethyl)-2(R),3(S)-dihydroxy-5-methylhexyl]-2(R)-(cyclopropylmethyl)butanediamide]",7.03
3,"CC(C)C[C@H](O)[C@H](O)[C@H](CC1CCCCC1)NC(=O)[C@@H](CC(=O)N(CC(=O)N(C)C)Cc1ccccc1)CC1CC1 [Compound 2, N^4-benzyl-N^4-[2-(dimethylamino)-2-oxoethyl]-N^1-[1(S)-(cyclohexylmethyl)-2(R),3(S)-dihydroxy-5-methylhexyl]-2(R)-(cyclopropylmethyl)butanediamide]",7.25
4,"CC(C)C[C@H](O)[C@H](O)[C@H](CC1CCCCC1)NC(=O)[C@@H](CC(=O)N(CCc1ccccc1)CC(=O)N(C)C)CC1CC1 [Compound 3, N^4-[2-(dimethylamino)-2-oxoethyl]-N^4-(2-phenylethyl)-N^1-[1(S)-(cyclohexylmethyl)-2(R),3(S)-dihydroxy-5-methylhexyl]-2(R)-(cyclopropylmethyl)butanediamide]",7.23
5,"CC(C)C[C@H](O)[C@H](O)[C@H](CC1CCCCC1)NC(=O)[C@@H](CC(=O)N(CCCc1ccccc1)CC(=O)N(C)C)CC1CC1 [Compound 4, N^4-[2-(dimethylamino)-2-oxoethyl]-N^4-(3-phenylpropyl)-N^1-[1(S)-(cyclohexylmethyl)-2(R),3(S)-dihydroxy-5-methylhexyl]-2(R)-(cyclopropylmethyl)butanediamide]",6.66
6,"CC(C)C[C@H](O)[C@H](O)[C@H](CC1CCCCC1)NC(=O)[C@@H](CC(=O)N(CC(=O)N(C)C(C)(C)C)Cc1ccccc1)CC1CC1 [Compound 5, N^4-benzyl-N^4 -{2-[methyl(1,1-dimethylethyl)amino]-2-oxoethyl}-N^1-[1(S)-(cyclohexylmethyl)-2(R),3(S)-dihydroxy-5-methylhexyl]-2(R)-(cyclopropylmethyl)butanediamide]",6.54
7,"CNC(=O)CN(Cc1ccccc1)C(=O)C[C@@H](CC1CC1)C(=O)N[C@@H](CC1CCCCC1)[C@@H](O)[C@@H](O)CC(C)C [Compound 6, N^4-benzyl-N^4-[2-(methylamino)-2-oxoethyl]-N^1-[1(S)-(cyclohexylmethyl)-2(R),3(S)-dihydroxy-5-methylhexyl]-2(R)-(cyclopropylmethyl)butanediamide]",6.46
8,"CC(C)C[C@H](O)[C@H](O)[C@H](CC1CCCCC1)NC(=O)[C@@H](CC(=O)N(CC(N)=O)Cc1ccccc1)CC1CC1 [Compound 7, N^4-(2-amino-2-oxoethyl)-N^4-benzyl-N^1-[1(S)-(cyclohexylmethyl)-2(R),3(S)-dihydroxy-5-methylhexyl]-2(R)-(cyclopropylmethyl)-butanediamide]",6.40
9,"CON(C)C(=O)CN(Cc1ccccc1)C(=O)C[C@@H](CC1CC1)C(=O)N[C@@H](CC1CCCCC1)[C@@H](O)[C@@H](O)CC(C)C [Compound 8, N^4-benzyl-N^4 -{2-[(methoxy)methylamino]-2-oxoethyl}-N^1-[1(S)-(cyclohexylmethyl)-2(R),3(S)-dihydroxy-5-methylhexyl]-2(R)-(cyclopropylmethyl)butanediamide]",7.18
10,"CC(C)C[C@H](O)[C@H](O)[C@H](CC1CCCCC1)NC(=O)[C@@H](CC(=O)N(CC(=O)N(C)C)Cc1cccc2ccccc12)CC1CC1 [Compound 9, N^4-[2-(dimethylamino)-2-oxoethyl]-N^4-(1-naphthylmethyl)-N^1-[1(S)-(cyclohexylmethyl)-2(R),3(S)-dihydroxy-5-methylhexyl]-2(R)-(cyclopropylmethyl)butanediamide]",7.18
11,"COc1ccc(CN(CC(=O)N(C)C)C(=O)C[C@@H](CC2CC2)C(=O)N[C@@H](CC2CCCCC2)[C@@H](O)[C@@H](O)CC(C)C)cc1 [Compound 10, N^4-[2-(dimethylamino)-2-oxoethyl]-N^4-[(4-methoxyphenyl)methyl]-N^1-[1(S)-(cyclohexylmethyl)-2(R),3(S)-dihydroxy-5-methylhexyl]-2(R)-(cyclopropylmethyl)butanediamide]",6.36
12,"CCN(CC)C(=O)CN(Cc1ccccc1)C(=O)C[C@@H](CC1CC1)C(=O)N[C@@H](CC1CCCCC1)[C@@H](O)[C@@H](O)CC(C)C [Compound 11, N^4-benzyl-N^4-[2-(diethylamino)-2-oxoethyl]-N^1-[1(S)-(cyclohexylmethyl)-2(R),3(S)-dihydroxy-5-methylhexyl]-2(R)-(cyclopropylmethyl)-butanediamide]",6.85
13,"CC(C)C[C@H](O)[C@H](O)[C@H](CC1CCCCC1)NC(=O)[C@@H](CC(=O)N(CC(=O)N(C)CCc1ccccn1)Cc1ccccc1)CC1CC1 [Compound 12, N^4-benzyl-N^4 -{2-{methyl[2-(2-pyridinyl)ethyl]amino}-2-oxoethyl}-N^1-[1(S)-(cyclohexylmethyl)-2(R),3(S)-dihydroxy-5-methylhexyl]-2(R)-(cyclopropylmethyl)butanediamide]",7.47
14,"CC(C)C[C@H](O)[C@H](O)[C@H](CC1CCCCC1)NC(=O)[C@@H](CC(=O)N(CC(=O)N(C)C)Cc1ccccn1)CC1CC1 [Compound 13, N^4-[2-(dimethylamino)-2-oxoethyl]-N^4-(2-pyridinylmethyl)-N^1-[1(S)-(cyclohexylmethyl)-2(R),3(S)-dihydroxy-5-methylhexyl]-2(R)-(cyclopropylmethyl)butanediamide]",6.92
15,"CC(C)C[C@H](O)[C@H](O)[C@H](CC1CCCCC1)NC(=O)[C@@H](CC(=O)N(CC(=O)N(C)C)Cc1cccnc1)CC1CC1 [Compound 14, N^4-[2-(dimethylamino)-2-oxoethyl]-N^4-(3-pyridinylmethyl)-N^1-[1(S)-(cyclohexylmethyl)-2(R),3(S)-dihydroxy-5-methylhexyl]-2(R)-(cyclopropylmethyl)butanediamide]",6.46
16,"CC(C)C[C@H](O)[C@H](O)[C@H](CC1CCCCC1)NC(=O)[C@@H](CC(=O)N(CC(=O)N(C)CCN(C)C(=O)N1CCOCC1)[C@@H](C)c1ccccc1)Cc1csc(N)n1 [Compound 15, N^4 -{2-{methyl{2-[methyl(morpholinocarbonyl)amino]ethyl}amino}-2-oxoethyl}-N^4-[1(S)-phenylethyl]-N^1-[1(S)-(cyclohexylmethyl)-2(R),3(S)-dihydroxy-5-methylhexyl]-2(R)-[(2-amino-4-thiazolyl)methyl]butanediamide]",9.30
17,"CC(C)C[C@H](O)[C@H](O)[C@H](CC1CCCCC1)NC(=O)[C@@H](CC(=O)N(CC(=O)N(C)C)[C@H](C)c1ccccc1)CC1CC1 [Compound 16, N^4-[2-(dimethylamino)-2-oxoethyl]-N^4-[1(R)-phenylethyl]-N^1-[1(S)-(cyclohexylmethyl)-2(R),3(S)-dihydroxy-5-methylhexyl]-2(R)-(cyclopropylmethyl)butanediamide]",6.34
18,"CC(C)C[C@H](O)[C@H](O)[C@H](CC1CCCCC1)NC(=O)[C@@H](CC(=O)N(CC(=O)N(C)C)[C@@H](C)c1ccccc1)CC1CC1 [Compound 17, N^4-[2-(dimethylamino)-2-oxoethyl]-N^4-[1(S)-phenylethyl]-N^1-[1(S)-(cyclohexylmethyl)-2(R),3(S)-dihydroxy-5-methylhexyl]-2(R)-(cyclopropylmethyl)butanediamide]",7.47
19,"CC(C)C[C@H](O)[C@H](O)[C@H](CC1CCCCC1)NC(=O)[C@@H](CC(=O)N(CC(=O)N(C)C)[C@@H](C)c1cccc2ccccc12)CC1CC1 [Compound 18, N^4-[2-(dimethylamino)-2-oxoethyl]-N^4-[1(S)-(1-naphthylethyl)]-N^1-[1(S)-(cyclohexylmethyl)-2(R),3(S)-dihydroxy-5-methylhexyl]-2(R)-(cyclopropylmethyl)butanediamide]",6.77
20,"CC(C)C[C@H](O)[C@H](O)[C@H](CC1CCCCC1)NC(=O)[C@@H](CC(=O)N(CC(=O)N(C)C)C[C@H](C)c1ccccc1)CC1CC1 [Compound 19, N^4-[2-(dimethylamino)-2-oxoethyl]-N^4-[2(R)-phenylpropyl]-N^1-[1(S)-(cyclohexylmethyl)-2(R),3(S)-dihydroxy-5-methylhexyl]-2(R)-(cyclopropylmethyl)butanediamide]",7.16
